Results published in PubChem BioAssay (NCI).
Values joined by “and” are separate entries in the source; they are usually repeats but may differ in a detail not shown here. Equal entries are not always repeated.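 Each compound was tested at five concentrations against cells in 96-well plates for 48 hours. Here, GI50 denotes the concentration required for 50% inhibition of growth. At the TGI there is no net growth.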

Experiments:
Test in all cases: growth of human tumour cells (NCI), 48 h
[1] = tested on: LOX IMVI melanoma
[2] = tested on: NCI-H522 lung
[3] = tested on: NCI-H23 lung
[4] = tested on: NCI-H226 lung
[5] = tested on: MOLT-4 leukemia
[6] = tested on: U251 CNS
[7] = tested on: HL-60(TB) leukemia
[8] = tested on: A549 NSCLC
[9] = tested on: A498 renal
[10] = tested on: SK-MEL-2 melanoma

SMILES	TGI [1]	TGI [2]	TGI [3]	TGI [4]	TGI [5]	TGI [6]	TGI [7]	TGI [8]	GI50 [1]	GI50 [9]	TGI [9]	GI50 [2]	GI50 [10]	TGI [10]	GI50 [3]	GI50 [4]	GI50 [5]	GI50 [6]	GI50 [8]	GI50 [7]
CC1(C)C(=O)C(C)(C)C1=NN	> 100 µM	> 100 µM	> 100 µM	> 100 µM	> 100 µM	> 100 µM	> 100 µM	> 100 µM												
C/C(=N\O)c1cccc(Nc2cc(-n3ccnn3)c3ccccc3n2)c1	30.4 µM	28.9 µM	48.6 µM	9.35 µM	28.2 µM	62.2 µM		43.2 µM	15.4 µM	15.2 µM	38.3 µM	13.2 µM	15.3 µM	29.5 µM	21.3 µM	0.388 µM	11.6 µM	19.9 µM	16.9 µM	
O=C1C=CC=CC2CC=C[C@@H](O)C12 (stereo partly specified)	38.9 µM	26.8 µM			> 100 µM		37 µM	67.7 µM			38.2 µM			58.5 µM						
CCOC(=O)C1=C(c2ccccc2)N(C)c2ccccc2S1	30.3 µM	52.3 µM	60.4 µM	54.1 µM	> 100 µM	49.1 µM	> 100 µM	> 100 µM						45.3 µM						
O=C(Nc1ccc(Cl)cc1Cl)C(=O)C(C(=O)c1ccc2ccccc2c1)C1OC(=O)c2ccccc21 (stereo unspecified)	24.9 µM		13.1 µM	6.33 µM		16.2 µM	23.9 µM	73.6 µM			20.2 µM			31.7 µM						
O=C(Nc1cccs1)c1c(O)[nH]c(=S)[nH]c1=O	> 100 µM	> 100 µM	> 100 µM	> 100 µM	> 100 µM	> 100 µM		> 100 µM			> 100 µM			> 100 µM						
O=C(O)COc1ccc(O)c2c1C(=O)CCCC2=O	> 100 µM	> 100 µM	> 100 µM		> 100 µM	> 100 µM	> 100 µM	> 100 µM			> 100 µM			> 100 µM						
COc1ccccc1N=C(N)N/N=C/c1c[nH]c2ccccc12	22.6 µM	19.8 µM	19.2 µM	28.5 µM	23.4 µM	24.2 µM	33.3 µM	26.6 µM						19.2 µM						
FC(F)(F)c1cc(-c2nnc3n2N=C(N2CCCC2)CS3)cc(C(F)(F)F)c1	> 50 µM	> 50 µM	> 50 µM	> 50 µM		> 50 µM			> 50 µM	> 50 µM	> 50 µM	24 µM	> 50 µM	> 50 µM	> 50 µM	24.6 µM		18.1 µM		
O=C(O)[C@@H]1[C@H](C(=O)O)[C@H](C(=O)O)C[C@@H]1C(=O)O	> 100 µM	> 100 µM	> 100 µM	> 100 µM	> 100 µM	> 100 µM		> 100 µM			> 100 µM			> 100 µM						
CCCCS(=O)CCC(N)C(=O)O (stereo unspecified)		> 100 µM	> 100 µM	> 100 µM	> 100 µM	> 100 µM	> 100 µM	> 100 µM			> 100 µM									
COc1ccc(-c2nc3sc(-c4ccc(Cl)cc4)cn3n2)cc1	> 50 µM	> 50 µM	> 50 µM	> 50 µM	> 50 µM	2.29 µM	> 50 µM	5.89 µM	> 50 µM			14.9 µM	> 50 µM	> 50 µM	6.66 µM	11.1 µM	11.3 µM	1.03 µM	1.59 µM	> 50 µM
CN(C)c1ccc([O-])cc1.CN(C)c1ccc([O-])cc1.CN(C)c1ccc([O-])cc1.CN(C)c1ccc([O-])cc1.[Ti+4]	> 100 µM	98.2 µM	> 100 µM	> 100 µM	> 100 µM		> 100 µM	> 100 µM	76.9 µM	19.4 µM	> 100 µM	33.2 µM	> 100 µM	> 100 µM	> 100 µM	> 100 µM	38.1 µM		51.9 µM	27.5 µM
CCOC(=O)C1=C(C(=O)c2ccc(C)cc2)C(c2cccc([N+](=O)[O-])c2)C(C(=O)c2ccc(C)cc2)=C(C(=O)OCC)N1	31.4 µM	36.2 µM	30.1 µM	35.2 µM	> 100 µM	25.8 µM	96.7 µM	66.1 µM						> 100 µM						
OC1c2ccccc2C2(O)C1C(c1ccccc1)C(c1ccccc1)C2(O)c1ccccc1 (stereo unspecified)	21.1 µM	31.7 µM	41.7 µM		22.8 µM	23.1 µM	31.9 µM	81.2 µM						23.3 µM						
CCCNCCCC(NC(C)=O)C(=O)NCc1ccccc1 (stereo unspecified)	> 100 µM	> 100 µM	> 100 µM	> 100 µM	> 100 µM	> 100 µM		> 100 µM			> 100 µM			> 100 µM						
CC(=O)N[C@@H]1C(O)CN2C(=O)C(=O)O[C@H](C(O)CO)[C@@H]12 (stereo partly specified)	> 100 µM	> 100 µM			> 100 µM	> 100 µM	> 100 µM	> 100 µM			> 100 µM			> 100 µM						
CCCCCCCCCCCCCCN	> 100 µM	> 100 µM	> 100 µM		> 100 µM	> 100 µM	> 100 µM				> 100 µM			> 100 µM						
O=C(c1ccc2ccccc2c1)c1c(C(F)(F)F)n([O-])c2cc(F)c(F)cc2[n+]1=O			9.29 µM	44.2 µM	2.68 µM		3.55 µM	16.4 µM		16 µM	32.1 µM		2.16 µM	5.52 µM	2.62 µM	4.86 µM	0.749 µM		4.33 µM	1.37 µM
COc1cc(CCN)c2c(c1OC)SSSSS2		0.849 µM	1.79 µM		> 100 µM	2.46 µM	5.09 µM	2.71 µM	0.0127 µM	1.98 µM	3.64 µM	0.203 µM	1.1 µM	2.61 µM	0.478 µM		0.0646 µM	1.08 µM	1.38 µM	1.57 µM

SMILES	TGI [1]	TGI [2]	TGI [3]	TGI [4]	TGI [5]	TGI [6]	TGI [7]	TGI [8]	GI50 [1]	GI50 [9]	TGI [9]	GI50 [2]	GI50 [10]	TGI [10]	GI50 [3]	GI50 [4]	GI50 [5]	GI50 [6]	GI50 [8]	GI50 [7]
CCCCC1CC(c2cccc([N+](=O)[O-])c2)=NO1 (stereo unspecified)		> 100 µM	> 100 µM	> 100 µM	> 100 µM	> 100 µM	> 100 µM	> 100 µM			> 100 µM			> 100 µM						
Clc1ccc(Cc2nc3ccccc3s2)c(Cl)c1	31.4 µM	30.9 µM		39.1 µM	41.2 µM		35.3 µM	42.1 µM			41.5 µM			32.7 µM						
O=C([CH-]C(=O)c1ccccc1)c1ccccc1.O=C([CH-]C(=O)c1ccccc1)c1ccccc1.O=C([CH-]C(=O)c1ccccc1)c1ccccc1.[Nd+3].[OH3+]	29.4 µM	7.28 µM	13.3 µM		12.5 µM	> 100 µM	4.99 µM	31.8 µM	11.5 µM	9 µM	27.3 µM	2.06 µM	3.97 µM	15.6 µM	2.97 µM		2.24 µM	9.22 µM	8.41 µM	1.5 µM
Oc1cc(O)c(Oc2cccc(O)c2O)c(O)c1		> 100 µM	> 100 µM		> 100 µM	> 100 µM	> 100 µM	> 100 µM			> 100 µM			> 100 µM						
COC1=CC(=O)C2C(C1=O)[C@@H]1c3ccccc3C[C@H]21 (stereo partly specified)	> 100 µM	> 100 µM	> 100 µM		> 100 µM	> 100 µM	> 100 µM	> 100 µM			> 100 µM			> 100 µM						
CC1CC#CCOC(=O)CCCC1=O (stereo unspecified)	> 100 µM	> 100 µM	> 100 µM	> 100 µM	> 100 µM	> 100 µM	> 100 µM	> 100 µM												
O=C(c1ccccc1)C1CCCCN1C(=O)c1ccccc1 (stereo unspecified)		> 100 µM		> 100 µM	> 100 µM	> 100 µM	> 100 µM	> 100 µM			> 100 µM			> 100 µM						
OCCCOC(c1ccccc1)(c1ccccc1)c1ccccc1	> 100 µM	> 100 µM	> 100 µM		> 100 µM	> 100 µM	> 100 µM	> 100 µM												
CC[C@@]1(O)C[C@H](OC2CC(N(C)C)C(OC3CC(O)C(OC4CCC(=O)C(C)O4)C(C)O3)C(C)O2)c2c(cc3c(c2O)C(=O)c2c(O)cccc2C3=O)[C@H]1C(=O)OC (stereo partly specified)			0.12 µM and 0.125 µM	0.0948 µM and 0.13 µM		2.11 µM and 2.49 µM	0.0613 µM and 0.177 µM				0.0539 µM and 0.0599 µM			0.118 µM						0.00866 µM and 0.0039 µM
Cc1ccc(S(=O)(=O)NCCNC2=CC(=O)c3nc4ccccc4c4ccnc2c34)cc1	42.4 µM	37.3 µM	49.5 µM	54.4 µM		63.9 µM	> 100 µM	44.5 µM	16.6 µM	24.1 µM	53.1 µM	15 µM	33 µM	> 100 µM	20.1 µM	22.2 µM		24.7 µM	15.2 µM	28.1 µM
Cc1ccc(-c2cc(-c3ccco3)c(C#N)c(=O)[nH]2)cc1	> 100 µM	> 100 µM	> 100 µM	> 100 µM	> 100 µM	> 100 µM	> 100 µM	> 100 µM			> 100 µM									
Cn1nc(-c2ccccc2)c(C(=O)/C=C/c2ccc(F)cc2)c(N2CCCCC2)c1=O	15.4 µM	28.7 µM			7.09 µM	27.7 µM	3.28 µM	55.1 µM												
COC[C@@H](N=CN1CCc2cc(OC)c(OC)cc2[C@@H]1C)C(C)(C)C		> 100 µM	> 100 µM	> 100 µM	> 100 µM	> 100 µM	> 100 µM	> 100 µM						> 100 µM						
CS(=O)(=O)OCCN1CCN(C(=O)c2cccc3c(Nc4ccc(S(=O)(=O)N=C(N)N)cc4)c4ccccc4nc23)CC1			> 100 µM	> 100 µM	> 100 µM	> 100 µM	> 100 µM	> 100 µM			> 100 µM									
NC1CCCCC1.[O]=[Ge].[O]=[Ge].[O]=[Ge][OH].[O]=[Ge][OH]	> 100 µM		> 100 µM	> 100 µM	> 100 µM		> 100 µM	> 100 µM			> 100 µM			> 100 µM		> 100 µM				
COc1cc(/C=C\c2ccc(C)cc2)cc(OC)c1OC	38.7 µM	0.013 µM	0.276 µM	0.987 µM	0.51 µM	0.348 µM	0.0159 µM	> 100 µM					0.0044 µM	36.5 µM		< 0.0134 µM				
C1C[OH+]CC[OH+]CCNCC[OH+]CC[OH+]CCN1.[Cl-].[Pt+4]	> 100 µM	> 100 µM	> 100 µM	> 100 µM	> 100 µM	> 100 µM		> 100 µM	> 100 µM	> 100 µM	> 100 µM	26.3 µM			> 100 µM	> 100 µM	> 100 µM	> 100 µM	> 100 µM	
Cc1c(S(C)(=O)=O)c(-c2cc(F)cc(N3CCN(c4ccc(NS(=O)(=O)c5ccc(N[C@H](CCN6CCC(C(=O)OCCCP(=O)(O)O)CC6)CSc6ccccc6)c(S(=O)(=O)C(F)(F)F)c5)cc4)CC3)c2)c(-c2ccc(Cl)cc2)n1C(C)C	> 100 µM	> 100 µM	> 100 µM	> 100 µM		> 100 µM		> 100 µM	> 100 µM	> 100 µM	> 100 µM	> 100 µM	> 100 µM	> 100 µM	> 100 µM	> 100 µM		> 100 µM	> 100 µM	
COc1cc(/C=C2\CCC/C(=C\c3cc(OC)c(O)c(OC)c3)C2=O)cc(OC)c1O		3.5 µM and 2.85 µM	3.5 µM and 4.19 µM	47.9 µM and > 100 µM	75 µM and 36.5 µM	2.76 µM and 3.14 µM			1.53 µM	2.18 µM	3.21 µM and 4.81 µM	1.24 µM	1.63 µM	11.8 µM and 4.19 µM		3.91 µM	2.97 µM		3.14 µM	
Nc1nc2c(c(=O)[nH]1)NC(CO)CN2 (stereo unspecified)	36.7 µM	> 100 µM	> 100 µM	> 100 µM	> 100 µM	> 100 µM	> 100 µM	> 100 µM												
